The values that follow come from ChEMBL document CHEMBL3860069, “A new Suzuki synthesis of triphenylethylenes that inhibit aromatase and bind to estrogen receptors α and β” (Bioorg Med Chem, 2016).

The structures appear in SMILES notation. Where only a bound is given, the exact number is not on record here.

The first series concerns the target T1, Estrogen receptor (Homo sapiens) (UniProt P03372).
T1 sequence (whole entry): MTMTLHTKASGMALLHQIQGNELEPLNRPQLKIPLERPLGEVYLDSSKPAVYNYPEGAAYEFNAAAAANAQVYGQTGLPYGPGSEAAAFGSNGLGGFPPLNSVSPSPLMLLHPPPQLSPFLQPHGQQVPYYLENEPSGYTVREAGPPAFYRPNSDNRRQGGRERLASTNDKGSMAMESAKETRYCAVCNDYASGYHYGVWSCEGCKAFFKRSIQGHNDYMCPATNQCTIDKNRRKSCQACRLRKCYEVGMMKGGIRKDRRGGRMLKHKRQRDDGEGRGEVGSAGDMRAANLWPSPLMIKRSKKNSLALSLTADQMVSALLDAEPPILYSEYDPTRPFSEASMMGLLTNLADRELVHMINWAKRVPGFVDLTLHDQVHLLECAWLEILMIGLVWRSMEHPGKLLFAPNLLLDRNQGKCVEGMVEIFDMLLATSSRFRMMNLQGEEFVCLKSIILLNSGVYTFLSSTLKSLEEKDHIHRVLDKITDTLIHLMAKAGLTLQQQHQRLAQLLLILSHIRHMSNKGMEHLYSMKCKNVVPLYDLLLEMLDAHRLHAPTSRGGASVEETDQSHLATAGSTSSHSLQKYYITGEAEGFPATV
Nature of the series: Displacement of fluorescent ES2 from recombinant human ERalpha at 100 uM after 2 hrs in absence of light by fluorometric analysis relative to control.
Settings: not given
Consider `CC/C(=C(/c1ccc(O)cc1)c1ccc(OCC(N)=O)cc1)c1ccccc1`, for which the inhibition turned out to be 57%.

For the molecule `CC(=C(c1ccc(O)cc1)c1ccc(O)cc1)c1ccc([N+](=O)[O-])cc1`, the inhibition was found to be 19%.

Take `CCC(=C(c1ccc(O)cc1)c1ccc(O)cc1)c1ccc([N+](=O)[O-])cc1`: the inhibition came out at 40%.

For the molecule `CC(=C(c1ccc(O)cc1)c1ccc(OCC(N)=O)cc1)c1ccc([N+](=O)[O-])cc1`, the inhibition worked out at 0%.

On to `CCC(=C(c1ccc(O)cc1)c1ccc(OCC(N)=O)cc1)c1ccc([N+](=O)[O-])cc1`, for which the inhibition amounted to 0%.

Turning to `CCC(=C(c1ccc(N)cc1)c1ccc(N)cc1)c1ccc(N)cc1`, the inhibition was found to be 25%.

For the molecule `CC(=C(c1ccc(N)cc1)c1ccc(N)cc1)c1ccc(N)cc1`, the inhibition was 31%.

For another series, the target named is T2, Estrogen receptor beta (Homo sapiens, UniProt Q92731). As to the kind of experiment: Displacement of fluorescent ES2 from recombinant human ERbeta at 100 uM after 2 hrs in absence of light by fluorometric analysis relative to control.
T2 sequence (Q92731 whole entry): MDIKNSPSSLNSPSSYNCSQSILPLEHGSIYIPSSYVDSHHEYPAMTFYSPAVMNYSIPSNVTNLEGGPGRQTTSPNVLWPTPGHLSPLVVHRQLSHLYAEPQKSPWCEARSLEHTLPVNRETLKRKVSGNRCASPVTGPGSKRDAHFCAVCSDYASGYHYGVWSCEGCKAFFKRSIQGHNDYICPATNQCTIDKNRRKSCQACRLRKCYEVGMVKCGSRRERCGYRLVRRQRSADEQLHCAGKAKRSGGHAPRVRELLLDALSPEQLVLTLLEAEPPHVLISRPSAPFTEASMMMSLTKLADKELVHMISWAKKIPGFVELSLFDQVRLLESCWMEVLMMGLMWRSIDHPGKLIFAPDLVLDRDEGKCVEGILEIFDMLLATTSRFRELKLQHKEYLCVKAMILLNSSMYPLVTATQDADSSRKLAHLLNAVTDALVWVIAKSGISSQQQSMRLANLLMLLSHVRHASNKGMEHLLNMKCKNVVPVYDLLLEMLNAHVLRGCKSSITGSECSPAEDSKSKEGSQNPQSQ
Settings: not given
`CC/C(=C(/c1ccc(O)cc1)c1ccc(OCC(N)=O)cc1)c1ccccc1`: the inhibition came out at 71%.

For `CC(=C(c1ccc(O)cc1)c1ccc(O)cc1)c1ccc([N+](=O)[O-])cc1`, the inhibition is 55%.

With `CCC(=C(c1ccc(O)cc1)c1ccc(O)cc1)c1ccc([N+](=O)[O-])cc1`, the inhibition worked out at 66%.

On to `CC(=C(c1ccc(O)cc1)c1ccc(OCC(N)=O)cc1)c1ccc([N+](=O)[O-])cc1`, for which the inhibition amounted to 0%.

For `CCC(=C(c1ccc(O)cc1)c1ccc(OCC(N)=O)cc1)c1ccc([N+](=O)[O-])cc1`, the inhibition is 0%.

Take `CCC(=C(c1ccc(N)cc1)c1ccc(N)cc1)c1ccc(N)cc1`: the inhibition came out at 76%.

For `CC(=C(c1ccc(N)cc1)c1ccc(N)cc1)c1ccc(N)cc1`, the inhibition was 77%.

A further series has as its target T3, Aromatase (Homo sapiens, UniProt P11511).
T3 sequence (P11511 whole entry): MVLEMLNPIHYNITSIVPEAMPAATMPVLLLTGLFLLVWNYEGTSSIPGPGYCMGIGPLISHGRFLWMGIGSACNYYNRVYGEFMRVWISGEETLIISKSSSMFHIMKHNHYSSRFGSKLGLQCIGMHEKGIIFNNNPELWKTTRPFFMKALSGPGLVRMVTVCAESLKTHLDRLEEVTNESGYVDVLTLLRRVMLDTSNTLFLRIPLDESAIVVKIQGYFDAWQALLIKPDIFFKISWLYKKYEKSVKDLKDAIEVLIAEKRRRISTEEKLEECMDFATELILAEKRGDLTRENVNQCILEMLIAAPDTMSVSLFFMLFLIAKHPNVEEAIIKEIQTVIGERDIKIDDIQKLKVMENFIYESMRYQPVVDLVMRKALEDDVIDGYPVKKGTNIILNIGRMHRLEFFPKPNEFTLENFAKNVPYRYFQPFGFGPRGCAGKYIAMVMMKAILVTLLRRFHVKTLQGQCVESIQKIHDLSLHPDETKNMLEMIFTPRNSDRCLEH
Test: not given
Settings: not given
`CC/C(=C(/c1ccc(O)cc1)c1ccc(OCC(N)=O)cc1)c1ccccc1`: the half-inhibitory concentration (IC50) came out at 9260 nM.

In the case of `CC(=C(c1ccc(N)cc1)c1ccc(NCC(N)=O)cc1)c1ccc([N+](=O)[O-])cc1`, the IC50 amounted to 645 nM.

`CC(=C(c1ccc(O)cc1)c1ccc(OCC(N)=O)cc1)c1ccc([N+](=O)[O-])cc1` displayed an IC50 of 9720 nM. Compared with the last molecule, the IC50 is about 15-fold higher.

Take `CCC(=C(c1ccc(N)cc1)c1ccc(NCC(N)=O)cc1)c1ccc([N+](=O)[O-])cc1`: the IC50 is 287 nM. Compared with the last molecule, the IC50 is about 34-fold lower.

In a further series the target is T4, Estrogen receptor (Homo sapiens, UniProt P03372).
T4 sequence (P03372 whole entry): T1 sequence (whole entry)
Test: not given
Settings: not given
Molecule `CC(=C(c1ccc(N)cc1)c1ccc(NCC(N)=O)cc1)c1ccc([N+](=O)[O-])cc1` displayed a concentration for a half-maximal effect (EC50) of 164 nM.

`CCC(=C(c1ccc(N)cc1)c1ccc(NCC(N)=O)cc1)c1ccc([N+](=O)[O-])cc1` came in with an EC50 of 451 nM.

The next series concerns the target T2, Estrogen receptor beta.
Test: not given
Settings: not given
Turning to `CC(=C(c1ccc(N)cc1)c1ccc(NCC(N)=O)cc1)c1ccc([N+](=O)[O-])cc1`, the EC50 worked out at 218 nM.

In turn, `CCC(=C(c1ccc(N)cc1)c1ccc(NCC(N)=O)cc1)c1ccc([N+](=O)[O-])cc1` came in with an EC50 of 346 nM.

In another series the target is T5, CYP19 (aromatase) (Homo sapiens, UniProt P11511).
T5 sequence (P11511 whole entry): T3 sequence (P11511 whole entry)
Nature of the series: in vitro. As to conditions: recombinant human microsomal CYP19, probe MFC.
Description: Inhibition of recombinant human microsomal CYP19 at 50 uM using MFC as substrate measured after 30 mins by fluorometric analysis relative to control
Take `CC/C(=C(/c1ccc(O)cc1)c1ccc(OCC(N)=O)cc1)c1ccccc1`: the inhibition at 0.5 h, 50 µM is more than 90%.

With `CCC(=C(c1ccc(N)cc1)c1ccc(N)cc1)c1ccc([N+](=O)[O-])cc1`, the inhibition at 0.5 h, 50 µM was more than 90%.

Take `CC(=C(c1ccc(N)cc1)c1ccc(NCC(N)=O)cc1)c1ccc([N+](=O)[O-])cc1`: the inhibition at 0.5 h, 50 µM is more than 90%.

With `CCC(=C(c1ccc(O)cc1)c1ccc(O)cc1)c1ccccc1`, the inhibition at 0.5 h, 50 µM was more than 90%.

Take `CC(=C(c1ccc(O)cc1)c1ccc(O)cc1)c1ccc([N+](=O)[O-])cc1`: the inhibition at 0.5 h, 50 µM was determined as 75%.

Consider `CC/C(=C(\c1ccc(O)cc1)c1ccc(OCCN)cc1)c1ccccc1`, for which the inhibition at 0.5 h, 50 µM is more than 90%.

With `CCC(=C(c1ccc(O)cc1)c1ccc(O)cc1)c1ccc([N+](=O)[O-])cc1`, the inhibition at 0.5 h, 50 µM turned out to be 78%.

Take `CC(=C(c1ccc(O)cc1)c1ccc(O)cc1)c1ccc(N)cc1`: the inhibition at 0.5 h, 50 µM is more than 90%.

As to `CC/C(=C(/c1ccc(O)cc1)c1ccc(OCCN)cc1)c1ccccc1`, the inhibition at 0.5 h, 50 µM is more than 90%.

For the molecule `CC(=C(c1ccc(O)cc1)c1ccc(OCC(N)=O)cc1)c1ccc([N+](=O)[O-])cc1`, the inhibition at 0.5 h, 50 µM is more than 90%.

Regarding `CCC(=C(c1ccc(O)cc1)c1ccc(OCCN)cc1)c1ccccc1`, the inhibition at 0.5 h, 50 µM was more than 90%.

For the molecule `CCC(=C(c1ccc(O)cc1)c1ccc(OCC(N)=O)cc1)c1ccc([N+](=O)[O-])cc1`, the inhibition at 0.5 h, 50 µM was determined as 76%.

Take `CCC(=C(c1ccc(N)cc1)c1ccc(N)cc1)c1ccc(N)cc1`: the inhibition at 0.5 h, 50 µM was more than 90%.

In the case of `CC(=C(c1ccc(N)cc1)c1ccc(N)cc1)c1ccc(N)cc1`, the inhibition at 0.5 h, 50 µM was more than 90%.

`CCC(=C(c1ccc(N)cc1)c1ccc(NCC(N)=O)cc1)c1ccc([N+](=O)[O-])cc1`: the inhibition at 0.5 h, 50 µM was more than 90%.

As for `CCC(=C(c1ccc(O)cc1)c1ccc(O)cc1)c1ccc(N)cc1`, the inhibition at 0.5 h, 50 µM was more than 90%.

As for `CC(=C(c1ccc(N)cc1)c1ccc(N)cc1)c1ccc([N+](=O)[O-])cc1`, the inhibition at 0.5 h, 50 µM was more than 90%.
